Experimental data published in PubChem BioAssay AID248 (DTP/NCI, 2004).
Where “and” joins values, the source holds several entries; their conditions need not be identical. Equal entries are not always repeated. Toxic doses and inconclusive results are not listed. Cut-off read from the data, not from the text of the source: active = T/C of 150% or more; inactive = T/C below 125%.

Tested on: L1210 leukemia ip in BDF1 mice, survival T/C
Experiment: NCI In Vivo Anticancer Drug Screen. Data for tumor model L1210 Leukemia (intraperitoneal) in B6D2F1 (BDF1) mice
Conditions: endpoint: mean survival time, higher = longer survival
Procedure, shortened: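 Survival endpoint. Drug-treated group vs vehicle group, expressed as T divided by C. Tumor passaged by transplantation.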

Measured: T/C

O=C1N[C@@H]([C@H]2CC[C@H](Cl)CN2)C(=O)N[C@H]1[C@H]1CC[C@H](Cl)CN1
inactive: dose: 0.05 mg/kg/injection, schedule: Q01DX009 (ip), vehicle: saline 98 % of control and 109 % of control | dose: 0.1 mg/kg/injection, schedule: Q01DX009 (ip), vehicle: saline 104 % of control and 113 % of control | dose: 0.2 mg/kg/injection, schedule: Q01DX009 (ip), vehicle: saline 104 % of control and 124 % of control | dose: 0.25 mg/kg/injection, schedule: Q03HX008 (ip), vehicle: saline 117 % of control | dose: 0.25 mg/kg/injection, schedule: Q03HX016 (ip), vehicle: saline 121 % of control | dose: 0.39 mg/kg/injection, schedule: Q01DX009 (ip), vehicle: water 104 % of control | dose: 0.4 mg/kg/injection, schedule: Q01DX009 (ip), vehicle: saline 107 % of control | dose: 0.78 mg/kg/injection, schedule: Q01DX009 (ip), vehicle: water 120 % of control | dose: 1.0 mg/kg/injection, schedule: Q01DX001 (ip), vehicle: other 103 % of control | dose: 1.0 mg/kg/injection, schedule: Q01DX009 (ip), vehicle: water 108 % of control | dose: 1.25 mg/kg/injection, schedule: Q01DX001 (ip), vehicle: saline 116 % of control and 122 % of control | dose: 2.0 mg/kg/injection, schedule: Q01DX001 (ip), vehicle: none 120 % of control | dose: 2.0 mg/kg/injection, schedule: Q01DX001 (ip), vehicle: other 124 % of control | dose: 2.0 mg/kg/injection, schedule: Q01DX001 (sc), vehicle: saline 114 % of control | dose: 2.0 mg/kg/injection, schedule: Q01DX009 (ip), vehicle: water 119 % of control | dose: 4.0 mg/kg/injection, schedule: Q01DX009 (oral), vehicle: saline 86 % of control | dose: 6.25 mg/kg/injection, schedule: Q01DX009 (ip), vehicle: water 97 % of control | dose: 8.0 mg/kg/injection, schedule: Q04DX003 (ip), vehicle: saline 103 % of control | dose: 9.1 mg/kg/injection, schedule: Q01DX009 (ip), vehicle: saline 86 % of control | dose: 16.0 mg/kg/injection, schedule: Q08DX002 (ip), vehicle: saline 90 % of control | dose: 32.0 mg/kg/injection, schedule: Q01DX001 (ip), vehicle: none 64 % of control | dose: 200.0 mg/kg/injection, schedule: Q01DX001 (ip), vehicle: water 115 % of control | dose: 125.0 micrograms/kg/injection, schedule: Q03HX024 (ip), vehicle: saline 121 % of control
active: dose: 0.5 mg/kg/injection, schedule: Q01DX009 (ip), vehicle: saline 150 % of control | dose: 0.5 mg/kg/injection, schedule: Q03HX016 (ip), vehicle: saline 158 % of control | dose: 0.8 mg/kg/injection, schedule: Q01DX009 (ip), vehicle: saline 190 % of control | dose: 1.0 mg/kg/injection, schedule: Q01DX001 (ip), vehicle: saline 173 % of control | dose: 1.0 mg/kg/injection, schedule: Q01DX009 (ip), vehicle: saline 161 % of control and 186 % of control | dose: 1.0 mg/kg/injection, schedule: Q01DX009 (sc), vehicle: saline 161 % of control | dose: 1.0 mg/kg/injection, schedule: Q03HX008 (ip), vehicle: saline 165 % of control | dose: 1.0 mg/kg/injection, schedule: Q03HX016 (ip), vehicle: saline 280 % of control | dose: 1.1 mg/kg/injection, schedule: Q01DX009 (ip), vehicle: saline 246 % of control | dose: 1.3 mg/kg/injection, schedule: Q01DX009 (ip), vehicle: saline 159 % of control | dose: 1.5 mg/kg/injection, schedule: Q01DX009 (ip), vehicle: saline 171 % of control and 189 % of control | dose: 1.56 mg/kg/injection, schedule: Q01DX009 (ip), vehicle: water 160 % of control | dose: 1.8 mg/kg/injection, schedule: Q01DX009 (ip), vehicle: saline 255 % of control | dose: 2.0 mg/kg/injection, schedule: Q01DX009 (ip), vehicle: saline 206 % of control and 290 % of control and 306 % of control | dose: 2.0 mg/kg/injection, schedule: Q01DX009 (oral), vehicle: saline 173 % of control | dose: 2.0 mg/kg/injection, schedule: Q01DX009 (sc), vehicle: saline 201 % of control | dose: 2.0 mg/kg/injection, schedule: Q03HX008 (ip), vehicle: saline 430 % of control | dose: 2.0 mg/kg/injection, schedule: Q03HX016 (ip), vehicle: saline 207 % of control | dose: 2.0 mg/kg/injection, schedule: Q04DX003 (ip), vehicle: saline 172 % of control | dose: 2.0 mg/kg/injection, schedule: Q08DX002 (ip), vehicle: saline 155 % of control | dose: 2.2 mg/kg/injection, schedule: Q01DX009 (ip), vehicle: saline 210 % of control and 297 % of control | dose: 2.6 mg/kg/injection, schedule: Q01DX009 (ip), vehicle: saline 206 % of control and 470 % of control | dose: 3.0 mg/kg/injection, schedule: Q01DX009 (ip), vehicle: saline 229 % of control | dose: 3.13 mg/kg/injection, schedule: Q01DX009 (ip), vehicle: water 213 % of control | dose: 4.0 mg/kg/injection, schedule: Q01DX001 (oral), vehicle: saline 176 % of control | dose: 4.0 mg/kg/injection, schedule: Q04DX003 (ip), vehicle: saline 208 % of control | dose: 4.0 mg/kg/injection, schedule: Q08DX002 (ip), vehicle: saline 213 % of control | dose: 5.0 mg/kg/injection, schedule: Q01DX001 (ip), vehicle: saline 165 % of control and 170 % of control | dose: 5.0 mg/kg/injection, schedule: Q01DX001 (ip), vehicle: water 222 % of control | dose: 6.5 mg/kg/injection, schedule: Q01DX001 (ip), vehicle: saline 273 % of control and 327 % of control | dose: 6.7 mg/kg/injection, schedule: Q01DX001 (ip), vehicle: saline 257 % of control | dose: 8.0 mg/kg/injection, schedule: Q01DX001 (ip), vehicle: none 207 % of control | dose: 8.0 mg/kg/injection, schedule: Q01DX001 (ip), vehicle: other 316 % of control | dose: 8.0 mg/kg/injection, schedule: Q01DX001 (oral), vehicle: saline 240 % of control | dose: 8.0 mg/kg/injection, schedule: Q01DX001 (sc), vehicle: saline 150 % of control | dose: 8.0 mg/kg/injection, schedule: Q01DX009 (ip), vehicle: water 279 % of control | dose: 9.7 mg/kg/injection, schedule: Q01DX001 (ip), vehicle: saline 151 % of control and 254 % of control | dose: 10.0 mg/kg/injection, schedule: Q01DX001 (ip), vehicle: water 278 % of control | dose: 11.6 mg/kg/injection, schedule: Q01DX001 (ip), vehicle: saline 234 % of control and 314 % of control | dose: 16.0 mg/kg/injection, schedule: Q01DX001 (ip), vehicle: none 155 % of control | dose: 16.0 mg/kg/injection, schedule: Q01DX001 (ip), vehicle: other 279 % of control | dose: 16.0 mg/kg/injection, schedule: Q01DX001 (oral), vehicle: saline 223 % of control | dose: 16.0 mg/kg/injection, schedule: Q01DX009 (ip), vehicle: water 383 % of control | dose: 400.0 mg/kg/injection, schedule: Q01DX001 (ip), vehicle: water 199 % of control | dose: 800.0 mg/kg/injection, schedule: Q01DX001 (ip), vehicle: water 158 % of control | dose: 500.0 micrograms/kg/injection, schedule: Q03HX024 (ip), vehicle: saline 165 % of control | dose: 1000.0 micrograms/kg/injection, schedule: Q03HX024 (ip), vehicle: saline 211 % of control

C[N+](C)(C)CC1(COC(=O)C(O)(c2ccccc2)c2ccccc2)CC1
inactive: dose: 12.0 mg/kg/injection, schedule: Q04DX003 (ip), vehicle: Klucel (hydroxypropylcellulose) (HPC) 97 % of control | dose: 25.0 mg/kg/injection, schedule: Q01DX001 (ip), vehicle: Klucel (hydroxypropylcellulose) (HPC) 93 % of control | dose: 25.0 mg/kg/injection, schedule: Q04DX003 (ip), vehicle: Klucel (hydroxypropylcellulose) (HPC) 105 % of control | dose: 50.0 mg/kg/injection, schedule: Q01DX001 (ip), vehicle: Klucel (hydroxypropylcellulose) (HPC) 100 % of control | dose: 50.0 mg/kg/injection, schedule: Q04DX003 (ip), vehicle: Klucel (hydroxypropylcellulose) (HPC) 95 % of control | dose: 100.0 mg/kg/injection, schedule: Q01DX001 (ip), vehicle: Klucel (hydroxypropylcellulose) (HPC) 96 % of control and 100 % of control

COc1cc(C(O)CN)cc(OC)c1OC (stereo not given)
inactive: dose: 25.0 mg/kg/injection, schedule: Q01DX009 (ip), vehicle: saline 100 % of control | dose: 25.0 mg/kg/injection, schedule: Q04DX003 (ip), vehicle: saline 88 % of control | dose: 50.0 mg/kg/injection, schedule: Q01DX009 (ip), vehicle: saline 94 % of control | dose: 50.0 mg/kg/injection, schedule: Q04DX003 (ip), vehicle: saline 94 % of control | dose: 100.0 mg/kg/injection, schedule: Q01DX009 (ip), vehicle: saline 104 % of control | dose: 100.0 mg/kg/injection, schedule: Q04DX003 (ip), vehicle: saline 88 % of control | dose: 200.0 mg/kg/injection, schedule: Q01DX009 (ip), vehicle: saline 110 % of control | dose: 200.0 mg/kg/injection, schedule: Q04DX003 (ip), vehicle: saline 94 % of control | dose: 400.0 mg/kg/injection, schedule: Q04DX003 (ip), vehicle: saline 91 % of control
